Results as given in PMC6562844, “A Basic Study of Photodynamic Therapy with Glucose-Conjugated Chlorin e6 Using Mammary Carcinoma Xenografts” (Cancers, 2019).
≈ marks a conversion by molar mass, not a printed value. Where two headings read alike, the source gives them in different places.

What was measured:
SNP cells [1] = assay: Photodynamic cytotoxicity in SNP cells (Cell Counting Kit-8); type: cell-based, canine; conditions: for Cell viability compared with 0 J/cm^2 of light: p < 0.01; for IC50: Canis lupus familiaris, light or radiation study, 24 h, 24 h incubation, 650-nm laser 10 mW/cm^2, viability 24 h after PDT, read-out: IC50 against SNP cells
Experimental: We seeded 1 × 10^4 SNP cells into each well of 96-well plates (Corning Inc., New York, NY, USA) followed by overnight incubation. Cells were then incubated with various concentrations of G-Ce6 for 24 h at 37 °C. After washing with fresh media, the cells were irradiated with 650-nm light emitted by a semiconductor laser (Osada Electric Co., Ltd., Tokyo, Japan), using an optical fiber with a micro-lens delivery attachment (Pioneer Optics, Inc., Windsor Lock, CT, USA). PDT was performed at 10 mW/cm^2 in cells exposed to six concentrations of NPe6 and G-Ce6 (0, 0.064, 0.32, 1.6, 8.0, or 40.0 μg/mL) using four light doses (0, 1, 5, or 15 J/cm^2). The cells were then incubated for 24 h in the dark prior to examining cell viability using the Cell Counting Kit-8 (Dojindo, Kumamoto, Japan), according to the manufacturer’s instructions.

SNP cells [2] = assay: Analysis of cell death (Hoechst 33342, Annexin V-FITC / EthD-III staining); type: cell-based, canine; conditions: for Annexin V-FITC / EthD-III staining 4 h after PDT: 8 μg/mL
Experimental: We seeded 5 × 10^4 SNP cells in 35-mm Petri dishes containing 2 mL of cultivation medium. After 24 h of incubation, the dishes were divided into the following […] groups: 1) control group (no treatment); 2) 0 J/cm^2 PDT group (treated with 8 μg/mL G-Ce6 and irradiated with light dose of 0 J/cm^2); 3) 1 J/cm^2 PDT group (treated with 8 μg/mL G-Ce6 and irradiated with light dose of 1 J/cm^2); 4) 5 J/cm^2 PDT group (treated with 8 μg/mL G-Ce6 and irradiated with light dose of 5 J/cm^2); and 5) 15 J/cm^2 PDT group (treated with 8 μg/mL G-Ce6 and irradiated with light dose of 15 J/cm^2).
The cells were incubated with 8 μg/mL G-Ce6 for 24 h. After washing with fresh media, the cells were irradiated with 650-nm laser light (10 mW/cm^2; 1, 5, and 15 J/cm^2) emitted by a semiconductor laser using an optical fiber with a microlens delivery attachment. After 4 h of PDT, the cells were stained using the Promokine Apoptotic/Necrotic/Healthy cell detection kit (PromoKine, Heidelberg, Germany), according to the manufacturer’s instructions. […] Nuclear morphology was examined using an Olympus BX51 (Olympus Co., Tokyo, Japan). […] Nuclear morphology was examined using an Olympus Fluoview FV1000 (Olympus Co., Tokyo, Japan). The cells were analyzed using fluorescence microscopy using FITC and Texas Red filter setting.

SNP cells [3] = assay: Reactive oxygen species assay (Muse Oxidative Stress kit); type: cell-based, canine; conditions: 8 μg/mL, 4 h after PDT
Experimental: SNP cells were seeded at a density of 5 × 10^4 cells/well in 35-mm petri dishes containing 2 mL culture medium. Following 24 h of incubation, the cells were divided into the following groups: control (no treatment); laser (irradiated with a light dose of 15 J/cm^2); G-Ce6 (treated with 8 μg/mL G-Ce6); and PDT (treated with 8 μg/mL G-Ce6, and then irradiated with a light dose of 1, 5, or 15 J/cm^2).
Reactive oxygen species (ROS) generation was assessed 4 h after laser irradiation using the Muse Oxidative Stress kit (EMD Millipore Co.), according to the manufacturer’s protocols; this kit determines the percentage of cells that are negative (healthy cells) and positive for ROS (cells containing ROS).
Single-cell suspensions were then loaded onto the Muse Cell Analyzer (EMD Millipore Co.).

SNP tumors [4] = assay: Tumor response to PDT in SNP tumor-bearing mice; type: in vivo, NOD/ShiJic-scidJcl mice; conditions: 10 mg/kg i.v.; for Tumor regrowth delay vs control group: 677-nm, 100 J/cm^2, p < 0.05
Experimental: Six-week-old female NOD/ShiJic-scidJcl mice (CLEA Japan, Tokyo, Japan) were maintained in isolators under specific pathogen-free conditions. All SCID mice were housed and handled under clean conditions using a Jic rack (Jic Co., Kanagawa, Japan), sterilized water, cages, beddings, and food (CL-2; CLEA Japan, Tokyo, Japan). Food and water were given ad libitum. SNP cells were inoculated subcutaneously in the shaved lower dorsum of mice at a density of 1 × 10^6 cells in 0.1 mL phosphate buffered salts (Nacalai Tesque Inc., Kyoto, Japan) per mouse using a 26-gauge syringe. The treatments were initiated when the average tumor volume reached about 100 mm^3 in tumor model. The use of animals and the procedures employed in this study were approved by the Animal Research Committee of Tottori University (project number: 15-T-48).
We examined the following two experimental groups: (i) a 3-h-interval PDT group (G-Ce6 administered 3 h before laser irradiation) and (ii) a 5-min-interval PDT group (G-Ce6 administered 5 min before laser irradiation). Tumor-bearing mice were intravenously administered approximately 0.1 mL of G-Ce6 stock solution to achieve a dose of 10 mg/kg body weight; they were irradiated with 677-nm laser light emitted by a diode laser (Osada Electric Co., Ltd., Tokyo, Japan). Light was delivered to the mice through a quartz fiber fitted with a microlens and expanded onto the tumor at a 2–4 mm skin margin. The tumors were exposed at a fluence rate of 250 mW/cm^2, at a light dose of 100 J/cm^2.
The resulting treatment effect was assayed by changes in tumor volume. The tumor size was regularly measured after PDT using a caliper. Tumor volume was calculated using the following formula: tumor volume (V) = (a × b × c) × π/6, where a, b, and c are three orthogonal diameters of the tumor. The experiment was terminated on day 25. All mice were sacrificed via cervical dislocation, and the tumors were harvested.

SNP tumors [5] = assay: Histological examination of SNP tumors after PDT (H&E); type: in vivo, NOD/ShiJic-scidJcl mice
Experimental: To examine PDT-induced histological changes in the tumor tissue and surrounding normal tissue, animals were sacrificed via cervical dislocation, and the tumors were harvested at 24 h after PDT. The tumor tissues were fixed in 10% buffered formalin and embedded in paraffin. Tumor sections were cut at a thickness of 4 μm, stained with hematoxylin & eosin (H&E), and examined under a light microscope (Olympus BX51).

CCC1=C(C)c2cc3[nH]c(cc4nc(c(CC(=O)OC)c5[nH]c(cc1n2)c(C)c5C(=O)OC)[C@@H](CCC(=O)OC)[C@@H]4C)c(C)c3C(C)OCCCS[C@@H]1O[C@H](CO)[C@@H](O)[C@H](O)[C@H]1O (stereo partly drawn) [G-Ce6, Methyl (7S,8S)-18-ethyl-5-(2-methoxy-2-oxoethyl)-7-(3-methoxy-3-oxopropyl)-2,8,12,17-tetramethyl-13-(1-(3-(((2S,3R,4S,5S,6R)-3,4,5-trihydroxy-6-(hydroxymethyl)tetrahydro-2H-pyran-2-yl)thio)propoxy)ethyl)-7H,8H-porphyrin-3-carboxylate]
Cell viability compared with 0 J/cm^2 of light (SNP cells [1]; 1.6 μg/mL, 15 J/cm^2): significantly lower
Cell viability compared with 0 J/cm^2 of light (SNP cells [1]; 8 μg/mL, 5 J/cm^2 and 15 J/cm^2): significantly lower
Cell viability compared with 0 J/cm^2 of light (SNP cells [1]; 40 μg/mL, 1, 5, and 15 J/cm^2): significantly lower
Cell death in the absence of laser irradiation (SNP cells [1]; <40 μg/mL G-Ce6, no laser irradiation): not observed
IC50 (SNP cells [1]; light dose 1 J/cm^2): 33.4 µg/mL (≈ 37.4 µM)
IC50 (SNP cells [1]; light dose 5 J/cm^2): 10.4 µg/mL (≈ 11.6 µM)
IC50 (SNP cells [1]; light dose 15 J/cm^2): 1.7 µg/mL (≈ 1.9 µM)
Morphological changes 4 h after PDT (SNP cells [2]; 0 J/cm^2 PDT group, Hoechst 33342): Signs of cell death were not visible
Annexin V-FITC / EthD-III staining 4 h after PDT (SNP cells [2]; 0 and 1 J/cm^2 PDT groups): a few cells were positively stained with EthD-III
Annexin V-FITC / EthD-III staining 4 h after PDT (SNP cells [2]; 5 and 15 J/cm^2 PDT groups): many cells were positively stained with Annexin V or EthD-III
Morphological changes 4 h after PDT (SNP cells [2]; 1 J/cm^2 PDT group): membrane blebbing
Morphological changes 4 h after PDT (SNP cells [2]; 5 J/cm^2 PDT group): shrinkage
Hoechst 33342 nuclear staining 4 h after PDT (SNP cells [2]; 5 and 15 J/cm^2 PDT groups): nuclear condensation
Morphological changes 4 h after PDT (SNP cells [2]; 15 J/cm^2 PDT group): cell membranes were not observed and a decrease in the number of SNP cells was evident
Percentage of ROS (+) cells compared with control group (SNP cells [3]; 5 J/cm^2, p < 0.01): significantly higher
Percentage of ROS (+) cells (SNP cells [3]; 15 J/cm^2): remarkably decreased
Mean tumor weight on day 25 (SNP tumors [4]; 3-h-interval PDT): 210.3 ± 85.0 mg
Tumor regrowth delay vs control group (SNP tumors [4]; 3-h-interval PDT): significant tumor regrowth delay
Mean tumor weight on day 25 (SNP tumors [4]; 5-min-interval PDT): 34.0 ± 12.7 mg
Tumor regrowth delay vs control group (SNP tumors [4]; 5-min-interval PDT): significant tumor regrowth delay
Histological findings 24 h after PDT (SNP tumors [5]; 3-h-interval PDT): cells at the superficial tumor tissue appeared necrotic, whereas deep-seated tumor cells appeared intact
Histological findings 24 h after PDT (SNP tumors [5]; 5-min-interval PDT): widespread tumor cells appeared necrotic
